The subject of the assay is Staphylococcus aureus (S. aureus). Put plainly: Microbial growth and zones of inhibition on agar plates. The class given is cell-based. Particulars: 24 hours at 37° C. As for the experimental part: 10 mm diameter by 2 mm thick cylindrical bone cement samples were prepared as previously described for Palacos R, Palacos R+G and Palacos R with 200 mg of L61 liposomal gentamicin sulphate. Tryptone soya agar (TSA) was prepared by dissolving 40 g of tryptone soy agar medium in one liter of distilled water. The solution was boiled for one minute then sterilized in an autoclave at 121° C. for 15 minutes. The solution was allowed to cool to 45-50° C. before being dispensed into petri dishes (9 cm diameter). The petri dishes were cooled to room temperature then stored at 8-15° C. until use. Staphylococcus aureus (S. aureus) was cultured in tryptic soy broth (TSB) for 18-24 hours at 37° C. A sterile cotton swab was used to spread the inoculum across the TSA petri dish. The petri dish was turned by 60° and the process was repeated to ensure complete surface coverage. A 10 ug gentamicin standard disc was placed on the petri dish as a control and pressure was applied to the top of the disc to ensure full surface contact. […] The petri dish was then incubated at 37° C. for 18-24 hours, after which, the zones of inhibition around the samples and gentamicin disc were measured. Images of the zones of inhibition were taken and measured using ImageJ software (National Institutes of Health, Maryland, USA). The zones of inhibition were measured as the radius of the zone minus the radius of the sample. […]

Results on one substance are retold here after patent publication US9895466B2, “Liposomal drug delivery system for bone cements” (UNIVERSITY COLLEGE CARDIFF CONSULTANTS LIMITED, priority 2013, dated 2018).

As to gentamicin sulphate, the “Zone of inhibition against S. aureus” value is “created a zone of inhibition”.
